Test results reported in patent publication US20240239790A1, “7-Morpholino-1,6-Naphthyridin-5-yl Derivatives and Pharmaceutical Compositions Thereof Useful as DNA-PK Inhibitor” (adMare Therapeutics Society, priority 2021, published 2024).

Target: T1, DNA-PK phosphorylation at Serine 2056 (Homo sapiens, UniProt P78527)
T1 construct: FaDu cells were purchased from ATCC; host or cells: FaDu
Assay: Cellular Assay for Inhibition of DNA-PK Phosphorylation at Serine 2056 in FaDu cells (sandwich ELISA, neocarzinostatin)
Assay type: cell-based
Settings: pSer2056 DNA-PK, Table 3
Description: FaDu cells were purchased from ATCC and maintained in MEM alpha medium (Life Technologies, cat. no. 12561) supplemented with 10% fetal bovine serum, and 1% GlutaMAX at 37° C. supplemented with 5% CO2. 50,000 cells were seeded to each well of a 96-well cell culture plate in 50 μL of culture medium and incubated for 16-24 hours. Three-fold serially diluted compounds were prepared in DMSO. Culture media was used to prepare compound treatments to 0.3% DMSO (dimethyl sulphoxide) content. Compound treatments were added to the cells for 1 hour prior incubation, followed by the addition of neocarzinostatin in fresh culture medium to 1 μg/mL final concentration for an additional 2 hours incubation to induce DNA DSBs (double-strand breaks). DMSO controls were incubated with fresh culture medium alone for the additional two hours incubation. The cells were then lysed and frozen at −20° C. Cell lysates were thawed on wet ice and protein concentrations quantified by BCA Protein Assay (Thermo #23225). Lysis buffer was used to normalize lysates by protein content and all lysates were then investigated by sandwich ELISA by means of DNA-PK-specific antibodies (Abcam ab44815: total DNA-PK; ab124918: phosphoserine-2056 DNA-PK) in sandwich ELISA format on the MSD S600MM platform (MesoScale Discovery). % inhibition was calculated for all data points: =1−(DATA_PT−AVERAGE(DMSO controls))/(AVERAGE(NCS controls)−AVERAGE(DMSO controls)). Logarithm of the molar concentration of compound was plotted against percent inhibition to calculate IC50 values, with curve fit settings for data fit to log(inhibitor) vs. normalized response—Variable slope using curve fit software (GraphPad Prism).

`CN1CC[C@@H](Oc2cnc(N[C@H]3CC[C@@H](Oc4nc(N5CCOCC5)cc5ncc(NS(C)(=O)=O)cc45)CC3)nc2)C1` [LFA2037, N-[5-[4-[[5-[(3R)-1-methylpyrrolidin-3-yl]oxypyrimidin-2-yl]amino]cyclohexoxy]-7-morpholino-1,6-naphthyridin-3-yl] methanesulfonamide] and `CS(=O)(=O)Nc1cnc2cc(N3CCOCC3)nc(O[C@H]3CC[C@@H](Nc4ncc(OCCN)cn4)CC3)c2c1` [LFA2027, N-[5-[4-[[5-(2-aminoethoxy)pyrimidin-2-yl]amino]cyclohexoxy]-7-morpholino-1,6-naphthyridin-3-yl]methanesulfonamide] cannot be ordered by IC50: less than 0.1 µM for the first, less than 0.1 µM for the second.

Compared with `CN(C)CCOc1cnc(N[C@H]2CC[C@@H](Oc3nc(N4CCOCC4)cc4ncc(O)cc34)CC2)nc1` [LFA2079, 5-[4-[[5-[2-(dimethylamino)ethoxy]pyrimidin-2-yl]amino]cyclohexoxy]-7-morpholino-1,6-naphthyridin-3-ol], `CN(C)CCOc1cnc(N[C@H]2CC[C@@H](Oc3nc(N4CCOCC4)cc4ncc(NS(C)(=O)=O)cc34)CC2)nc1` [LFA2024, N-[5-[4-[[5-[2-(dimethylamino)ethoxy]pyrimidin-2-yl]amino]cyclohexoxy]-7-morpholino-1,6-naphthyridin-3-yl]methanesulfonamide] is higher in IC50: less than 0.1 µM for the first, 0.1 to 1 µM for the second. The first is the more potent here.

`Cn1c(COc2cnc3cc(N4CCOCC4)nc(O[C@H]4CC[C@@H](Nc5nccnc5C#N)CC4)c3c2)cnc1[N+](=O)[O-]` [LFA2095, 3-[[4-[[3-[(3-methyl-2-nitro-imidazol-4-yl)methoxy]-7-morpholino-1,6-naphthyridin-5-yl]oxy]cyclohexyl]amino]pyrazine-2-carbonitrile] and `CC(Oc1cnc2cc(N3CCOCC3)nc(O[C@H]3CC[C@@H](Nc4cncc(C(F)(F)F)n4)CC3)c2c1)c1cnc([N+](=O)[O-])n1C` (stereo partly drawn) [LFA2096, N-[4-[[3-[1-(3-methyl-2-nitro-imidazol-4-yl)ethoxy]-7-morpholino-1,6-naphthyridin-5-yl]oxy]cyclohexyl]-6-(trifluoromethyl)pyrazin-2-amine] fall in the same range of IC50: 10 to 30 µM for the first, 10 to 30 µM for the second.

`Cc1nc(N[C@H]2CC[C@@H](Oc3nc(N4CCOCC4)cc4ncc(NS(C)(=O)=O)cc34)CC2)ncc1N1CCN(C)CC1` [LFA2038, N-[5-[4-[[4-methyl-5-(4-methylpiperazin-1-yl)pyrimidin-2-yl]amino]cyclohexoxy]-7-morpholino-1,6-naphthyridin-3-yl]methanesulfonamide] and `Cc1nc(N[C@H]2CC[C@@H](Oc3nc(N4CCOCC4)cc4ncc(NS(C)(=O)=O)cc34)CC2)ncc1OCCN1CCN(C)CC1` [LFA2039, N-[5-[4-[[4-methyl-5-[2-(4-methylpiperazin-1-yl)ethoxy]pyrimidin-2-yl]amino]cyclohexoxy]-7-morpholino-1,6-naphthyridin-3-yl]methanesulfonamide] cannot be ordered by IC50: less than 0.1 µM for the first, less than 0.1 µM for the second.

`Cc1nc(N[C@H]2CC[C@@H](Oc3nc(N4CCOCC4)cc4ncc(NS(C)(=O)=O)cc34)CC2)ncc1OCCN1CCOCC1` [LFA2040, N-[5-[4-[[4-methyl-5-(2-morpholinoethoxy)pyrimidin-2-yl]amino]cyclohexoxy]-7-morpholino-1,6-naphthyridin-3-yl]methanesulfonamide] and `CS(=O)(=O)Nc1cnc2cc(N3CCOCC3)nc(O[C@H]3CC[C@@H](Nc4ncc(CN5CCOCC5)cn4)CC3)c2c1` [LFA2020, N-[7-morpholino-5-[4-[[5-(morpholinomethyl)pyrimidin-2-yl]amino]cyclohexoxy]-1,6-naphthyridin-3-yl]methanesulfonamide] cannot be ordered by IC50: less than 0.1 µM for the first, less than 0.1 µM for the second.

First: CN1CCN(CCOc2ccnc(N[C@H]3CC[C@@H](Oc4nc(N5CCOCC5)cc5ncc(NS(C)(=O)=O)cc45)CC3)n2)CC1 [LFA2026, N-[5-[4-[[4-[2-(4-methylpiperazin-1-yl)ethoxy]pyrimidin-2-yl]amino]cyclohexoxy]-7-morpholino-1,6-naphthyridin-3-yl]methanesulfonamide]
Second: CS(=O)(=O)Nc1cnc2cc(N3CCOCC3)nc(O[C@H]3CC[C@@H](Nc4ncc(N5CCN(CCF)CC5)cn4)CC3)c2c1 [LFA2013]
The IC50 of the first is higher: 0.1 to 1 µM for the first, less than 0.1 µM for the second.

`CS(=O)(=O)Nc1cnc2cc(N3CCOCC3)nc(O[C@H]3CC[C@@H](Nc4ncc(N5CCN(CC(F)F)CC5)cn4)CC3)c2c1` [LFA2018, N-[5-[4-[[5-[4-(2,2-difluoroethyl)piperazin-1-yl]pyrimidin-2-yl]amino]cyclohexoxy]-7-morpholino-1,6-naphthyridin-3-yl]methanesulfonamide] and `CS(=O)(=O)Nc1cnc2cc(N3CCOCC3)nc(O[C@H]3CC[C@@H](Nc4ncc(N5CCN(CC(F)(F)F)CC5)cn4)CC3)c2c1` [LFA2017, N-[7-morpholino-5-[4-[[5-[4-(2,2,2-trifluoroethyl)piperazin-1-yl]pyrimidin-2-yl]amino]cyclohexoxy]-1,6-naphthyridin-3-yl]methanesulfonamide] cannot be ordered by IC50: less than 0.1 µM for the first, less than 0.1 µM for the second.

`CN1CCN(c2cnc(N[C@H]3CC[C@@H](Oc4nc(N5CCOCC5)cc5ncc(O)cc45)CC3)nc2)CC1` [LFA2080, 5-[4-[[5-(4-methylpiperazin-1-yl)pyrimidin-2-yl]amino]cyclohexoxy]-7-morpholino-1,6-naphthyridin-3-ol] and `CS(=O)(=O)Nc1cnc2cc(N3CCOCC3)nc(O[C@H]3CC[C@@H](Nc4ncc(N5CCOCC5)cn4)CC3)c2c1` [LFA2029, N-[7-morpholino-5-[4-[(5-morpholinopyrimidin-2-yl)amino]cyclohexoxy]-1,6-naphthyridin-3-yl]methanesulfonamide] cannot be ordered by IC50: less than 0.1 µM for the first, less than 0.1 µM for the second.

`CS(=O)(=O)Nc1cnc2cc(N3CCOCC3)nc(O[C@H]3CC[C@@H](Nc4ncc(N5CC6CCC(C5)N6)cn4)CC3)c2c1` [LFA2016, N-[5-[4-[[5-(3,8-diazabicyclo[3.2.1]octan-3-yl)pyrimidin-2-yl]amino]cyclohexoxy]-7-morpholino-1,6-naphthyridin-3-yl]methanesulfonamide] and `CS(=O)(=O)Nc1cnc2cc(N3CCOCC3)nc(O[C@H]3CC[C@@H](Nc4ncc(C5=CCNCC5)cn4)CC3)c2c1` [LFA2021, N-[7-morpholino-5-[4-[[5-(1,2,3,6-tetrahydropyridin-4-yl)pyrimidin-2-yl]amino]cyclohexoxy]-1,6-naphthyridin-3-yl]methanesulfonamide] fall in the same range of IC50: 0.1 to 1 µM for the first, 0.1 to 1 µM for the second.

First: CN1CCc2nc(N[C@H]3CC[C@@H](Oc4nc(N5CCOCC5)cc5ncc(NS(C)(=O)=O)cc45)CC3)ccc2C1 [LFA2008, N-[5-[4-[(6-methyl-7,8-dihydro-5H-1,6-naphthyridin-2-yl)amino]cyclohexoxy]-7-morpholino-1,6-naphthyridin-3-yl]methanesulfonamide]
Second: CS(=O)(=O)Nc1cnc2cc(N3CCOCC3)nc(O[C@H]3CC[C@@H](Nc4ccc5c(n4)CCNC5)CC3)c2c1 [LFA2003, N-[7-morpholino-5-[4-(5,6,7,8-tetrahydro-1,6-naphthyridin-2-ylamino)cyclohexoxy]-1,6-naphthyridin-3-yl]methanesulfonamide]
The IC50 of the first is lower: less than 0.1 µM for the first, 0.1 to 1 µM for the second.

Work on `CS(=O)(=O)Nc1cnc2cc(N3CCOCC3)nc(O[C@H]3CC[C@@H](Nc4ncc5c(n4)CNCC5)CC3)c2c1` [LFA2004, N-[7-morpholino-5-[4-(5,6,7,8-tetrahydropyrido[3,4-d]pyrimidin-2-ylamino)cyclohexoxy]-1,6-naphthyridin-3-yl]methanesulfonamide] yielded an IC50 of 0.1 to 1 µM.
